In patent publication US10968193B2, “Antidiabetic bicyclic compounds” (Merck Sharp & Dohme Corp., priority 2014, dated 2021):

Target: T1, human GPR40 (Homo sapiens, UniProt O14842)
T1 construct: expressed in transfected cells; host or cells: HEK cells stably expressing the aequorin reporter
Assay: Inositol Phosphate Turnover (IP1) Assay 3
Format: cell-based
Conditions: HEK cells stably expressing human GPR40
Protocol: Human and mouse GPR40 stable cell-lines were generated in CHO cells stably expressing NFAT BLA (Beta-lactamase). A human GPR40 stable cell-line was generated in HEK cells stably expressing the aequorin expressing reporter. The expression plasmids were transfected using lipofectamine (Life Technologies) following manufacturer's instructions. Stable cell-lines were generated following drug selection.
Inositol Phosphate Turnover (IP1) Assay 3:
The assay was performed in 384-well format. HEK cells stably expressing human GPR40 were plated at 7500 cells per well in growth medium (DMEM/10% fetal calf serum). Cell plates were then incubated 16 hours at 37 degrees in a 5% CO2 incubator.
Measurement of Inositol Phosphate Turnover (IP) was performed using the CisBio IP-One kit (Part number 62IPAPEB). After the 16 hour incubation, the growth media was removed by centrifugation using the BlueWasher (AusWasher GUI Ver. v1.0.1.8) Protocol #21—“Light Dry” and 10 ul of stimulation buffer (prepared as described in the kit) was added to each well. In a separate plate, compounds were diluted in DMSO (200-fold over the final concentration in the assay well) and 50 nl was acoustically transferred to the appropriate well in the assay cell plate. The plates were then incubated for 60 minutes at 37 degrees in a 5% CO2 incubator. 10 ul of detection buffer (also prepared as described in the IP-One kit) was added to each well and the plates were incubated at rt for 60 minutes in the dark. The plates were then read in a Perkin Elmer EnVision or equivalent reader able to measure FRET. Fluorescent ratio of emission at 665 and 620 nm was then converted to IP1 concentration by back calculating from an IP1 standard curve prepared at the time of the assay. Data is normalized to % activity using a reference compound and EC50s determined using a standard 4-parameter fit.

T1 sequence (O14842 whole entry): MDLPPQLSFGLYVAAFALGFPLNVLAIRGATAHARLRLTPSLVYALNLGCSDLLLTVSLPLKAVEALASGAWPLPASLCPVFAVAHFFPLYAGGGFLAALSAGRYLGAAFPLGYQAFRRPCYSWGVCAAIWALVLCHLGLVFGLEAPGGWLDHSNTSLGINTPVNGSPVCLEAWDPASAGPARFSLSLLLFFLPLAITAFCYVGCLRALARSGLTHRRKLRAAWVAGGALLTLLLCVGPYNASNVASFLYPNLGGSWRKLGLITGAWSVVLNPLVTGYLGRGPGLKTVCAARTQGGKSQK

| Structure (SMILES) | EC50 |
| --- | --- |
| COc1cc(-c2ccc(C3CCc4ccc([C@H](C5CC5)[C@H](C)C(=O)O)cc4O3)cc2C(CN2CCCC2)OC)ccn1 (single isomer, unassigned) [Example 177, (2S, 3R)-3-cyclopropyl-3-((R or S)-2-(3-((R or S)-1-methoxy-2-(pyrrolidin-1-yl)ethyl)-4-(2-methoxypyridin-4-yl)phenylchroman-7-yl)-2-methylpropanoic acid] | 231 nM |
| COc1cc(-c2ccc(C3CCc4ccc([C@H](C5CC5)[C@H](C)C(=O)O)cc4O3)cc2C(CN2CCCC2)OC)ccn1 (single isomer, unassigned) [Example 178] | 136 nM |
| CCN(CC)Cc1cc(C2CCc3ccc([C@H](C4CC4)[C@H](C)C(=O)O)cc3O2)c(F)cc1-c1ccnc(OC)c1 (single isomer, unassigned) [Example 181] | 14 nM |
| CCN(CC)Cc1cc(C2CCc3ccc([C@H](C4CC4)[C@H](C)C(=O)O)cc3O2)c(F)cc1-c1ccnc(OC)c1 (single isomer, unassigned) [Example 182] | 16 nM |
| COc1cc(-c2cc(F)c(C3CCc4ccc([C@H](C5CC5)[C@H](C)C(=O)O)cc4O3)cc2CN(C(C)C)C(C)C)ccn1 (single isomer, unassigned) [Example 183] | 0.35 nM |
| COc1cc(-c2cc(F)c(C3CCc4ccc([C@H](C5CC5)[C@H](C)C(=O)O)cc4O3)cc2CN2CCCCC23CC3)ccn1 (single isomer, unassigned) [Example 187] | 0.4 nM |
| COc1cc(-c2cc(F)c(C3CCc4ccc([C@H](C5CC5)[C@H](C)C(=O)O)cc4O3)cc2CN2CCCCC23CC3)ccn1 (single isomer, unassigned) [Example 188] | 0.7 nM |
| COc1cc(-c2ccc(C3CCc4ccc([C@H](C5CC5)[C@H](C)C(=O)O)cc4O3)cc2CN2CC3CC3C2)c(C#N)cn1 (single isomer, unassigned) [Example 192] | 0.3 nM |
| CCN(C)Cc1cc(C2CCc3ccc([C@H](C4CC4)[C@H](C)C(=O)O)cc3O2)ccc1-c1cc(OC)ncc1C#N (single isomer, unassigned) [Example 195] | 12 nM |
| CCN(C)Cc1cc(C2CCc3ccc([C@H](C4CC4)[C@H](C)C(=O)O)cc3O2)ccc1-c1cc(OC)ncc1C#N (single isomer, unassigned) [Example 196] | 7.2 nM |
| COc1cc(-c2ccc(C3CCc4ccc([C@H](C5CC5)[C@H](C)C(=O)O)c(F)c4O3)cc2CN2CCCC2)c(F)cn1 (single isomer, unassigned) [Example 199] | 5.7 nM |
| COc1cc(-c2ccc(C3CCc4ccc([C@H](C5CC5)[C@H](C)C(=O)O)c(F)c4O3)cc2CN2CCCCC2)c(F)cn1 (single isomer, unassigned) [Example 201] | 4.4 nM |
| COc1cc(-c2ccc(C3CCc4ccc([C@H](C5CC5)[C@H](C)C(=O)O)c(F)c4O3)cc2CN2CCCC2(C)C)c(F)cn1 (single isomer, unassigned) [Example 206] | 1.3 nM |
| COc1cc(-c2ccc(C3CCc4ccc([C@H](C5CC5)[C@H](C)C(=O)O)c(F)c4O3)cc2CN2CCCC2(C)C)c(F)cn1 (single isomer, unassigned) [Example 207] | 1.3 nM |
| COc1cc(-c2ccc(C3CCc4ccc([C@H](C5CC5)[C@H](C)C(=O)O)c(F)c4O3)cc2CN2CCC[C@H]2C)c(F)cn1 (single isomer, unassigned) [Example 211] | 2.1 nM |
| COc1cc(-c2ccc(C3CCc4ccc([C@H](C5CC5)[C@H](C)C(=O)O)c(F)c4O3)cc2CN2CCC[C@@H]2C)c(F)cn1 (single isomer, unassigned) [Example 213] | 1.4 nM |
| CCOc1cc(-c2ccc(C3CCc4ccc([C@H](C5CC5)[C@H](C)C(=O)O)cc4O3)cc2CN(CC)CC)c(Cl)cn1 (single isomer, unassigned) [Example 215] | 6 nM |
| CCOc1cc(-c2ccc(C3CCc4ccc([C@H](C5CC5)[C@H](C)C(=O)O)cc4O3)cc2CN2CCCC2)c(Cl)cn1 (single isomer, unassigned) [Example 217] | 57 nM |
| CCOc1cc(-c2ccc(C3CCc4ccc([C@H](C5CC5)[C@H](C)C(=O)O)cc4O3)cc2CN2CCCC2)c(Cl)cn1 (single isomer, unassigned) [Example 218] | 10 nM |
| COc1cc(-c2ccc(C3CCc4ccc([C@H](C5CC5)[C@H](C)C(=O)O)cc4O3)c(F)c2CN2CCCC2)c(F)cn1 (single isomer, unassigned) [Example 219] | 2 nM |
| COc1cc(-c2ccc(C3CCc4ccc([C@H](C5CC5)[C@H](C)C(=O)O)cc4O3)c(F)c2CN2CCCC2)c(F)cn1 (single isomer, unassigned) [Example 220] | 7.2 nM |
| COc1cc(-c2ccc(C3CCc4ccc([C@H](C5CC5)[C@H](C)C(=O)O)cc4O3)cc2CN2CCCCC23CC3)ccn1 (single isomer, unassigned) [Example 222] | 1.3 nM |
| COc1cc(-c2ccc(C3CCc4ccc([C@H](C5CC5)[C@H](C)C(=O)O)cc4O3)c(CN3CCCCC34CC4)c2)ccn1 (single isomer, unassigned) [Example 224] | 11 nM |

The remaining molecules from weak to strong by EC50, led by results:

| EC50 | Structure (SMILES) |
| --- | --- |
| 14 nM | CCN(CC)Cc1cc(C2CCc3ccc([C@H](C4CC4)[C@H](C)C(=O)O)cc3O2)ccc1-c1ccnc(OC)c1 (single isomer, unassigned) [Example 221] |
| 12 nM | CCOc1cc(-c2ccc(C3CCc4ccc([C@H](C5CC5)[C@H](C)C(=O)O)cc4O3)cc2CN(CC)CC)c(Cl)cn1 (single isomer, unassigned) [Example 214] |
| 7.9 nM | CCN(Cc1cc(C2CCc3ccc([C@H](C4CC4)[C@H](C)C(=O)O)cc3O2)c(F)cc1-c1ccnc(OC)c1)C(C)C (single isomer, unassigned) [Example 186] |
| 5.1 nM | COc1ccc(F)c(-c2ccc(C3CCc4ccc([C@H](C5CC5)[C@H](C)C(=O)O)cc4O3)cc2CN2CCCCC23CC3)n1 (single isomer, unassigned) [Example 189] |
| 4.7 nM | COc1cc(-c2ccc(C3CCc4ccc([C@H](C5CC5)[C@H](C)C(=O)O)c(F)c4O3)cc2CN2CCCC2)c(F)cn1 (single isomer, unassigned) [Example 198] |
| 4.4 nM | CCN(Cc1cc(C2CCc3ccc([C@H](C4CC4)[C@H](C)C(=O)O)cc3O2)c(F)cc1-c1ccnc(OC)c1)C(C)C (single isomer, unassigned) [Example 185] |
| 3.1 nM | COc1cc(-c2ccc(C3CCc4ccc([C@H](C5CC5)[C@H](C)C(=O)O)c(F)c4O3)cc2CN2CCC[C@H]2C)c(F)cn1 (single isomer, unassigned) [Example 210] |
| 3.1 nM | COc1cc(-c2ccc(C3CCc4ccc([C@H](C5CC5)[C@H](C)C(=O)O)c(F)c4O3)cc2CN2CCC[C@@H]2C)c(F)cn1 (single isomer, unassigned) [Example 212] |
| 2.4 nM | CCN(CC)Cc1cc(C2CCc3ccc([C@H](C4CC4)[C@H](C)C(=O)O)c(F)c3O2)ccc1-c1cc(OC)ncc1F (single isomer, unassigned) [Example 205] |
| 2.1 nM | CCN(CC)Cc1cc(C2CCc3ccc([C@H](C4CC4)[C@H](C)C(=O)O)c(F)c3O2)ccc1-c1cc(OC)ncc1F (single isomer, unassigned) [Example 204] |
| 1.5 nM | COc1cc(-c2ccc(C3CCc4ccc([C@H](C5CC5)[C@H](C)C(=O)O)cc4O3)cc2CN(C)C(C)(C)C)c(C#N)cn1 (single isomer, unassigned) [Example 193] |
| 1.5 nM | COc1cc(-c2ccc(C3CCc4ccc([C@H](C5CC5)[C@H](C)C(=O)O)c(F)c4O3)cc2CN2CCCCC2)c(F)cn1 (single isomer, unassigned) [Example 200] |
| 1.1 nM | COc1cc(-c2ccc(C3CCc4ccc([C@H](C5CC5)[C@H](C)C(=O)O)cc4O3)cc2CN(C)C(C)(C)C)c(C#N)cn1 (single isomer, unassigned) [Example 194] |
| 0.73 nM | COc1cc(-c2cc(F)c(C3CCc4ccc([C@H](C5CC5)[C@H](C)C(=O)O)cc4O3)cc2CN(C(C)C)C(C)C)ccn1 (single isomer, unassigned) [Example 184] |
| 0.73 nM | COc1cc(-c2ccc(C3CCc4ccc([C@H](C5CC5)[C@H](C)C(=O)O)c(F)c4O3)cc2CN2[C@H](C)CC[C@H]2C)c(F)cn1 (single isomer, unassigned) [Example 208] |
| 0.5 nM | COc1cc(-c2ccc(C3CCc4ccc([C@H](C5CC5)[C@H](C)C(=O)O)c(F)c4O3)cc2CN2[C@H](C)CC[C@H]2C)c(F)cn1 (single isomer, unassigned) [Example 209] |
| 0.16 nM | COc1cc(-c2ccc(C3CCc4ccc([C@H](C5CC5)[C@H](C)C(=O)O)c(F)c4O3)cc2CN2CCCCC23CC3)c(F)cn1 (single isomer, unassigned) [Example 202] |
| 0.16 nM | COc1cc(-c2ccc(C3CCc4ccc([C@H](C5CC5)[C@H](C)C(=O)O)c(F)c4O3)cc2CN2CCCCC23CC3)c(F)cn1 (single isomer, unassigned) [Example 203] |
| 0.05 nM | COc1cc(-c2ccc(C3CCc4ccc([C@H](C5CC5)[C@H](C)C(=O)O)cc4O3)c(CN3CCCCC34CC4)c2)ccn1 (single isomer, unassigned) [Example 223] |
